Experimental data: patent EP2386565A2, “Compounds and methods to inhibit or augment an inflammatory response” (Cambridge Enterprise Ltd., priority 1999, dated 2000)
Where “and” joins values, the source holds several entries; their conditions need not be identical. Equal entries are not always repeated. Entries after “also recorded” stand apart in the source; their conditions may differ. Positions of bridges follow the written chain, without caps; N, C: chain ends. Non-standard residues stand in square brackets, D forms with d. Residues, ends and D or L forms follow the SMILES beside them.

System: ovalbumin-induced pulmonary inflammation, IgE, IL-4 and recall responses
Assay: Ovalbumin-induced asthma / hypersensitivity model
Format: in vivo, mice
Parameters: Total IgE (Serum), individual mice m1-m4 / Total IgE (Serum), Avg.: unit not given here
Conditions: for ng/ml IgE (4X avg.): serum; for splenocyte recall response to OVA (in words): versus positive controls
Procedure: A third study assessed the efficacy of daily dosing with CRD-Leu4Ile11Cys13 peptide 3(3-12)[MCP-1] to reduce OVA-induced pulmonary inflammation. Mice were sensitized with 0.1 mg of ovalbumin or PBS (diluent control) intraperitoneally in the absence of the test agent. […] These treatments were given daily from day 8 through day 21. On day 8, thirty minutes following treatment, mice were challenged intratracheally with 1% ovalbumin or PBS. On days 15, 18, and 21, thirty minutes following treatment, mice were challenged intratracheally with 2% ovalbumin or PBS. Mice were sacrificed 3 hours post-ovalbumin challenge, on day 21. Lungs were collected for histopathology, and for isolation of cells for total cell counts and FACS analysis. Bronchalveolar lavage (BAL) was collected for eicosinoid levels. Serum was collected for IgE and IL-4 levels. Spleens were collected for cytokine recall responses. […]

[1] = Group 2: Ova on days 8, 15, 18, 21, treat 1 × day 21, sacrifice day 21, 0 µg/ml Ova
[2] = Group 4: Ova on days 8, 15, 18, 21 & 35, treat BID 14 days, sacrifice day 35 (recent Ova challenge), 0 µg/ml Ova
[3] = Group 5: Ova on days 8, 15, 18, 21, treat BID 14 days, sacrifice day 34 (No recent Ova challenge), 0 µg/ml Ova
[4] = Group 5: PBS on days 8, 15, 18, 21, treat BID 14 days, sacrifice day 34 (No recent Ova challenge), 0 µg/ml Ova

For `CC[C@@H](C)[C@H]1NC(=O)[C@@H](CCC(N)=O)NC(=O)[C@H](N)CSSC[C@H](C(N)=O)NC(=O)[C@@H](CC(C)C)NC(=O)[C@@H](CC(=O)O)NC(=O)[C@H]2CCCN2C(=O)[C@@H](CCCCN)NC(=O)[C@@H](CCC(N)=O)NC(=O)[C@@H](CCCCN)NC(=O)[C@@H](Cc2c[nH]c3ccccc23)NC1=O` (H-[dC][dQ][dI][dW][dK][dQ][dK][dP][dD][dL][dC]-NH2; disulfide 1-11), the “Total IgE (Serum), Avg.” value (Group 2) was 1.505, the “Total IgE (Serum), individual mice m1-m4” value (Group 2 (single treatment day 21)) was 1.952 and 1.132 and 2.073 and 0.863 and the “IL-4 Assays, pg/ml IL-4, Avg. of Group” value [1] was 2.89 pg/mL. The “IL-4 Assays, pg/ml IL-4, individual mice m1-m4” value [1] was 2.81 pg/mL and 5.60 pg/mL and 0.25 pg/mL and 0.45 pg/mL, the “Total IgM + IgG (1 week splenocyte cultures), Avg.” value (“Total IgM + IgG … Avg.” for short) [1] was 57.45 and the “Total IgM + IgG (1 week splenocyte cultures), individual mice m1-m4” value (“Total IgM + IgG … individual mice m1-m4” for short) [1] was 108.00 and 24.97 and 40.65 and 56.17. The “Total IgE (1 week splenocyte cultures)” value (Group 2, 0 µg/ml Ova) was 0.067 ng/mL, the “Total IgE (1 week splenocyte cultures), Avg.” value (Group 2, 0 µg/ml Ova) was 0.017 and the “Total IgE (1 week splenocyte cultures), individual mice m1-m4” value (Group 2, 0 µg/ml Ova) was 0.000 and 0.051 and 0.007 and 0.009. The “IL-4 Assays, pg/ml IL-4, Avg. of Group” value (Group 2, 5 µg/ml Ova) was 5.86 pg/mL, the “IL-4 Assays, pg/ml IL-4, individual mice m1-m4” value (Group 2, 5 µg/ml Ova) was 3.18 pg/mL and 8.55 pg/mL and the “Total IgE (1 week splenocyte cultures)” value (Group 2, 5 µg/ml Ova) was 0.128 ng/mL. The “Total IgE (1 week splenocyte cultures), Avg.” value (Group 2, 5 µg/ml Ova) was 0.032, the “Total IgE (1 week splenocyte cultures), individual mice m1-m4” value (Group 2, 5 µg/ml Ova) was 0.041 and 0.023 and the “Total IgM + IgG … Avg.” value (Group 2, 5 µg/ml Ova) was 150.46. For the same molecule, the “Total IgM + IgG … individual mice m1-m4” value (Group 2, 5 µg/ml Ova) was 254.36 and 46.56, the “IL-4 Assays, pg/ml IL-4, Avg. of Group” value (Group 2, 50 µg/ml Ova) was 12.57 pg/mL and the “IL-4 Assays, pg/ml IL-4, individual mice m1-m4” value (Group 2, 50 µg/ml Ova) was 7.10 pg/mL and 11.46 pg/mL and 19.15 pg/mL and 75.36 pg/mL. The “Total IgE (1 week splenocyte cultures)” value (Group 2, 50 µg/ml Ova) was 0.024 ng/mL, the “Total IgE (1 week splenocyte cultures), Avg.” value (Group 2, 50 µg/ml Ova) was 0.006 and the “Total IgE (1 week splenocyte cultures), individual mice m1-m4” value (Group 2, 50 µg/ml Ova) was 0.011 and 0.002 and 0.004 and 0.007. For the same molecule, the “Total IgM + IgG … Avg.” value (Group 2, 50 µg/ml Ova) was 241.75, the “Total IgM + IgG … individual mice m1-m4” value (Group 2, 50 µg/ml Ova) was 137.57 and 176.41 and 331.79 and 321.23 and the “ng/ml IgE (4X avg.)” value (Group 2) was 6.020 ng/mL. For the same molecule, the “Total IgE (Serum), Avg.” value (Group 4) was 0.621, the “Total IgE (1 week splenocyte cultures), individual mice m1-m4” value (Group 4 (recent Ova challenge), 0 µg/ml Ova, listed as CRD-Leu4Ile11Cys13peptide 3(3-12)[MCP-1]) was 0.008 and 0.001 and 0.015 and 0.002 and the “Total IgE (Serum), individual mice m1-m4” value (Group 4 (treated 14 days, recent Ova challenge)) was 0.310 and 0.298 and 0.984 and 0.890. For the same molecule, the “IL-4 Assays, pg/ml IL-4, Avg. of Group” value [2] was 2.92 pg/mL, the “Total IgM + IgG … Avg.” value [2] was 17.16 and the “Total IgE (1 week splenocyte cultures)” value (Group 4, 0 µg/ml Ova) was 0.026 ng/mL. The “Total IgE (1 week splenocyte cultures), Avg.” value (Group 4, 0 µg/ml Ova) was 0.007, the “IL-4 Assays, pg/ml IL-4, Avg. of Group” value (Group 4, 5 µg/ml Ova) was 8.05 pg/mL and the “IL-4 Assays, pg/ml IL-4, individual mice m1-m4” value (Group 4, 5 µg/ml Ova) was 10.40 pg/mL and 12.77 pg/mL and 4.59 pg/mL and 4.45 pg/mL. The “Total IgE (1 week splenocyte cultures)” value (Group 4, 5 µg/ml Ova) was 0.096 ng/mL, the “Total IgE (1 week splenocyte cultures), Avg.” value (Group 4, 5 µg/ml Ova) was 0.024 and the “Total IgM + IgG … Avg.” value (Group 4, 5 µg/ml Ova) was 163.95. For the same molecule, the “Total IgE (1 week splenocyte cultures), individual mice m1-m4” value (Group 4, 5 µg/ml Ova, listed as CRD-Leu4Ile11Cys13peptide 3(3-12)[MCP-1]) was 0.009 (2×) and 0.047 and 0.031, the “Total IgM + IgG … individual mice m1-m4” value (Group 4, 5 µg/ml Ova, listed as CRD-Leu4Ile11Cys13 peptide 3(3-12)[MCP]) was 189.07 and 249.75 and 148.16 and 68.83 and the “IL-4 Assays, pg/ml IL-4, Avg. of Group” value (Group 4, 50 µg/ml Ova) was 14.45 pg/mL. The “IL-4 Assays, pg/ml IL-4, individual mice m1-m4” value (Group 4, 50 µg/ml Ova) was 14.38 pg/mL and 22.08 pg/mL and 10.25 pg/mL and 11.09 pg/mL, the “Total IgE (1 week splenocyte cultures)” value (Group 4, 50 µg/ml Ova) was 0.082 ng/mL and the “Total IgE (1 week splenocyte cultures), Avg.” value (Group 4, 50 µg/ml Ova) was 0.021. For the same molecule, the “Total IgM + IgG … Avg.” value (Group 4, 50 µg/ml Ova) was 416.86, the “Total IgE (1 week splenocyte cultures), individual mice m1-m4” value (Group 4, 50 µg/ml Ova, listed as CRD-Leu4Ile11Cys13peptide 3(3-12)[MCP-1]) was 0.013 and 0.043 and 0.008 and 0.018 and the “Total IgM + IgG … individual mice m1-m4” value (Group 4, 50 µg/ml Ova, listed as CRD-Leu4Ile11Cys13 peptide 3(3-12)[MCP]) was 338.50 and 679.86 and 487.87 and 161.20. For the same molecule, the “ng/ml IgE (4X avg.)” value (Group 4) was 2.482 ng/mL, the “Total IgE (Serum), Avg.” value (Group 5) was 1.102 and the “Total IgE (1 week splenocyte cultures), individual mice m1-m4” value (Group 5 (No recent Ova challenge), 0 µg/ml Ova) was 0.008 and 0.033 and 0.000 and 0.024. The “Total IgE (Serum), individual mice m1-m4” value (Group 5 (treated 14 days, no recent Ova challenge)) was 0.625 and 1.870 and 0.838 and 1.073, the “IL-4 Assays, pg/ml IL-4, Avg. of Group” value [3] was 8.05 pg/mL and the “IL-4 Assays, pg/ml IL-4, individual mice m1-m4” value [3] was 9.09 pg/mL and 3.80 pg/mL and 12.89 pg/mL and 6.42 pg/mL. For the same molecule, the “Total IgM + IgG … Avg.” value [4] was 20.05, the “Total IgM + IgG … individual mice m1-m4” value [4] was 26.54 and 15.44 and 21.35 and 16.89 and the “Total IgE (1 week splenocyte cultures)” value (Group 5, 0 µg/ml Ova) was 0.065 ng/mL. For the same molecule, the “Total IgE (1 week splenocyte cultures), Avg.” value (Group 5, 0 µg/ml Ova) was 0.016, the “IL-4 Assays, pg/ml IL-4, Avg. of Group” value (Group 5, 5 µg/ml Ova) was 6.33 pg/mL and the “IL-4 Assays, pg/ml IL-4, individual mice m1-m4” value (Group 5, 5 µg/ml Ova) was 5.70 pg/mL and 4.43 pg/mL and 10.09 pg/mL and 5.10 pg/mL. The “Total IgE (1 week splenocyte cultures)” value (Group 5, 5 µg/ml Ova) was 0.082 ng/mL, the “Total IgE (1 week splenocyte cultures), Avg.” value (Group 5, 5 µg/ml Ova) was 0.021 and the “Total IgE (1 week splenocyte cultures), individual mice m1-m4” value (Group 5, 5 µg/ml Ova) was 0.003 and 0.065 and 0.000 and 0.014. For the same molecule, the “Total IgM + IgG … Avg.” value (Group 5, 5 µg/ml Ova) was 53.22, the “Total IgM + IgG … individual mice m1-m4” value (Group 5, 5 µg/ml Ova) was 64.20 and 31.21 and 67.94 and 49.53 and the “IL-4 Assays, pg/ml IL-4, Avg. of Group” value (Group 5, 50 µg/ml Ova) was 5.61 pg/mL. The “IL-4 Assays, pg/ml IL-4, individual mice m1-m4” value (Group 5, 50 µg/ml Ova) was 7.02 pg/mL and 6.10 pg/mL and 4.74 pg/mL and 4.59 pg/mL, the “Total IgE (1 week splenocyte cultures)” value (Group 5, 50 µg/ml Ova) was 0.021 ng/mL and the “Total IgE (1 week splenocyte cultures), Avg.” value (Group 5, 50 µg/ml Ova) was 0.005. For the same molecule, the “Total IgE (1 week splenocyte cultures), individual mice m1-m4” value (Group 5, 50 µg/ml Ova) was 0.000 (2×) and 0.020 and 0.001, the “Total IgM + IgG … Avg.” value (Group 5, 50 µg/ml Ova) was 111.41 and the “Total IgM + IgG … individual mice m1-m4” value (Group 5, 50 µg/ml Ova) was 86.16 and 80.04 and 189.70 and 89.74. For the same molecule, the “ng/ml IgE (4X avg.)” value (Group 5) was 4.406 ng/mL, the “inflammatory infiltrates in the lung, histology (in words)” value (first study, high dose) was “minimal to no inflammatory infiltrates” and the “reduction in IL-4” value (second study, dose-dependent) was 85%. For the same molecule, the reduction in macrophages (second study, dose-dependent) was 74%, the “reduction in total cells in the lung” value (second study, dose-dependent) was “approximately 50%” and the “reduction in IgE” value (second study, s.c. 10.3 µg-1.03 mg before OVA challenges, dose-dependent) was 60%. The “cells in the lungs, total counts / FACS (in words)” value (versus PBS + OVA positive controls, study and dose as in the block) was “significantly lower numbers of CD3, CD4, B220, and Mac-1 cells; also recorded: significantly lower percentages of macrophages; also recorded: significantly lower numbers of macrophages, B cells, and CD4+ T cells; also recorded: no significant reduction of total cells in the lungs”, the “IgE levels (in words)” value (versus PBS + OVA positive controls, study as in the block) was “not detectable above background; also recorded: significantly lower; also recorded: significantly reduced; also recorded: reduced levels of serum IgE” and the “splenocyte recall response to OVA (in words)” value (study as in the block) was “reduced levels of IL-4, IgE, and total IgG and IgM”. For the same molecule, the “splenocyte recall response to OVA (in words)” value (study as in the block, listed as CRD-Leu4Ile11Cys13peptide 3(3-12)[MCP-1]) was “significantly less IL-4”.
